Assay type in all cases: cell-based
In experiment [1] the test system is Aspergillus niger (A. niger—ATCC 16404). The experiment in a line: Synergy test, microtiter plate high resolution MIC assay, mold. The following applies: for MIC: Aspergillus niger. From the text: (§1) One skilled in the art will recognize that the sensitivity of other microorganisms to the particular combinations will vary and, as a result, the concentrations, the ratios, for each, or both, of the compounds may vary from those detailed in these examples. The concentrations and ratios may also vary under different test conditions or with different test methods. One measure of synergy is the industrially accepted method described by Kull, […]. and Mayer, R. L., in Applied Microbiology 9:538-541 (1961), using the ratio determined by the formula: Qa/QA+Qb/QB=Synergy Index (“SI”) wherein: • QA=concentration of compound A (first component) in ppm, acting alone, which produced an end point (MIC of Compound A). • Qa=concentration of compound A in ppm, in the mixture, which produced an end point. • QB=concentration of compound B (second component) in ppm, acting alone, which produced an end point (MIC of Compound B). • Qb=concentration of compound B in ppm, in the mixture, which produced an end point. When the sum of Qa/QA and Qb/QB is greater than one, antagonism is indicated. […] The lower the SI, the greater is the synergy shown by that particular mixture. The minimum inhibitory concentration (MIC) of a microbicide is the lowest concentration tested under a specific set of conditions that prevents the growth of the tested microorganisms. Synergy tests were conducted using standard microtiter plate assays with media designed for optimal growth of the test microorganism. Minimal salt medium supplemented with 0.2% glucose and 0.1% yeast extract ([…] medium) was used for testing bacteria; Potato Dextrose Broth (PDB medium) was used for testing yeast and mold. In this method, a wide range of combinations of microbicides and other personal care raw materials was tested by conducting high resolution MIC assays in the presence of various concentrations of MIT, or BIT. […] The synergy of the combinations of the present invention was determined against a bacterium, Escherichia coli (E. coli-ATCC #8739), and/or a yeast, Candida albicans (C. albicans-ATCC 10231), and/or a mold, Aspergillus niger (A. niger-ATCC 16404). The bacteria were used at a concentration of about 5×10^6 bacteria per mL and the yeast and mold at 5×10^5 fungi per mL. These microorganisms are representative of natural contaminants in many consumer and industrial applications. […] (yeast and mold) or 30° C. (bacteria). […] In each test, First Component (A) was MIT and the Second Component (B) was the other microbicide, formulation ingredient, or raw material.

In experiment [2] the test system is Escherichia coli (E. coli—ATCC #8739). The experiment in a line: Synergy test, microtiter plate high resolution MIC assay, bacterium. The following applies: E. coli 8739, M9GY medium; for MIC: Escherichia coli, read-out: QB: MIC of second component (B) acting alone.
Text: as §1

Experiment [3] deals with Candida albicans (C. albicans—ATCC 10231). The experiment in a line: Synergy test, microtiter plate high resolution MIC assay, yeast. Conditions: for MIC: Candida albicans.
Text: as §1

Setting [4] is: A. niger 16404, PDB medium, 3 days.
Setting [5] is: A. niger 16404, PDB medium, 6 days.
The mark [6] stands for this setting: A. niger 16404, PDB medium, 10 days.
Where [7] appears, read: C. albicans 10231, PDB medium, 1 day.
Where [8] appears, read: C. albicans 10231, PDB medium, 2 days.
Setting [9] is: C. albicans 10231, PDB medium, 3 days.
Where [10] appears, read: ATCC16404, 72 h, A. niger 16404, PDB medium, 3 days, read-out: QB: MIC of second component (B) acting alone.
The mark [11] stands for this setting: ATCC10231, 48 h, C. albicans 10231, PDB medium, 2 days, read-out: QB: MIC of second component (B) acting alone.
Setting [12] is: ATCC10231, 24 h, C. albicans 10231, PDB medium, 1 day, read-out: QB: MIC of second component (B) acting alone.
Setting [13] is: ATCC16404, 240 h, A. niger 16404, PDB medium, 10 days, read-out: QB: MIC of second component (B) acting alone.

Like-named read-outs stand apart in the source and are kept apart here.

In general, MIC refers to the least concentration at which growth counts as inhibited.

Take `O=c1[nH]sc2ccccc12` [BIT, 1,2-benzisothiazolin-3-one]: the “SI (Synergy Index, Qa/QA+Qb/QB)” value in experiment [1] (setting [4]), in experiment [1] (setting [5]), in experiment [1] (setting [6]), in experiment [2] (1 day), in experiment [2] (2 days) and in experiment [2] (3 days) was 1.00 in each case. Besides, the “SI (Synergy Index, Qa/QA+Qb/QB)” value in experiment [3] (setting [7]), in experiment [3] (setting [8]) and in experiment [3] (setting [9]) was 1.00 in each case. The “QA: MIC of first component (A) acting alone” value worked out at 20 ppm in experiment [1] (setting [5]); 20 ppm in experiment [1] (setting [6]); 15 ppm in experiment [2] (1 day); 15 ppm in experiment [2] (2 days); 15 ppm in experiment [2] (3 days); 20 ppm in experiment [3] (setting [7]).
For `O=C(O)CN(CCN(CC(=O)O)CC(=O)O)CCN(CC(=O)O)CC(=O)O` [DTPA, diethylene triamine pentacetic acid], the “QB: MIC of second component (B) acting alone” value in experiment [1] (setting [4]) amounted to 800 ppm; in experiment [1] (setting [5]), 2000 ppm; in experiment [3] (setting [7]), 2000 ppm. The “SI (Synergy Index, Qa/QA+Qb/QB)” value in experiment [1] (setting [4]), in experiment [1] (setting [5]) and in experiment [3] (setting [7]) was 1.00 in each case.
Take `O=C(O)CC(NC(CC(=O)O)C(=O)O)C(=O)O` (stereo not shown) [IDS, iminodisuccinate]: in experiment [1] (setting [4]), the “QB: MIC of second component (B) acting alone” value is on record as 5000 ppm. Further, the “SI (Synergy Index, Qa/QA+Qb/QB)” value in experiment [1] (setting [4]) and in experiment [3] (setting [8]) was 1.00 each time.
On to `CC(C(=O)O)N(CC(=O)O)CC(=O)O` (stereo not shown) [MDGA, methyl glycine diacetic acid], for which the “SI (Synergy Index, Qa/QA+Qb/QB)” value in experiment [1] (setting [6]) and in experiment [3] (setting [9]) was 1.00 in each case.
In the case of `Cn1sccc1=O` [MIT, 2-methyl-4-isothiazolin-3-one], the “QA: MIC of first component (A) acting alone” value in experiment [1] (setting [4]) came out at 200 ppm. Also, the “SI (Synergy Index, Qa/QA+Qb/QB)” value in experiment [1] (setting [4]), in experiment [1] (setting [5]), in experiment [1] (setting [6]), in experiment [3] (setting [7]), in experiment [3] (setting [8]) and in experiment [3] (setting [9]) was 1.00 each time. Besides, the MIC was 300 µg/mL in experiment [1] (ATCC16404, 72 h, read-out: QA: MIC of first component (A) acting alone, A. niger 16404, PDB medium, 3 days); 300 µg/mL in experiment [1] (ATCC16404, 144 h, read-out: QA: MIC of first component (A) acting alone, A. niger 16404, PDB medium, 6 days); 300 µg/mL in experiment [1] (ATCC16404, 240 h, read-out: QA: MIC of first component (A) acting alone, A. niger 16404, PDB medium, 10 days); 200 µg/mL in experiment [3] (ATCC10231, 24 h, read-out: QA: MIC of first component (A) acting alone); 200 µg/mL in experiment [3] (ATCC10231, 48 h, read-out: QA: MIC of first component (A) acting alone); 200 µg/mL in experiment [3] (ATCC10231, 72 h, read-out: QA: MIC of first component (A) acting alone).
For the compound `COc1ccc(C(=O)O)cc1` [anisic acid, 4-methoxybenzoic acid], the “SI (Synergy Index, Qa/QA+Qb/QB)” value in experiment [1] (setting [4]) and in experiment [2] (1 day) was 1.00 throughout. The minimum inhibitory concentration (MIC) in experiment [1] (setting [10]) was 2000 µg/mL; in experiment [2] (ATCC8739, 24 h, 1 day), 8000 µg/mL.
For `CCCCCCCCCC(=O)O` [capric acid, decanoic acid], the “SI (Synergy Index, Qa/QA+Qb/QB)” value in experiment [1] (setting [5]), in experiment [2] (3 days) and in experiment [3] (setting [8]) was 1.00 each time. In addition, the minimal inhibitory concentration (MIC) in experiment [1] (ATCC16404, 144 h, A. niger 16404, PDB medium, 6 days, read-out: QB: MIC of second component (B) acting alone) is 5000 µg/mL; in experiment [2] (ATCC8739, 72 h, 3 days), 10000 µg/mL; in experiment [3] (setting [11]) it was 2000 µg/mL.
For `CCCCCCCCC(O)CO` (stereo not shown) [decylene glycol, 1,2-decanediol], the “SI (Synergy Index, Qa/QA+Qb/QB)” value in experiment [1] (setting [4]), in experiment [3] (setting [7]) and in experiment [3] (setting [8]) was 1.00 in each case. Moreover, the MIC in experiment [1] (setting [10]), in experiment [3] (setting [12]) and in experiment [3] (setting [11]) was 2000 µg/mL each time.
For `O=C(O)/C=C\C(=O)O` [maleic acid, 2-butenedioic acid], the “SI (Synergy Index, Qa/QA+Qb/QB)” value in experiment [2] (1 day) and in experiment [3] (setting [8]) was 1.00 in each case. Further, the minimal inhibitory concentration (MIC) in experiment [2] (ATCC8739, 24 h, 1 day) was 8000 µg/mL.
For the compound `CC(O)COc1ccccc1` (stereo not shown) [phenoxypropanol, propylene glycol phenyl ether], the “SI (Synergy Index, Qa/QA+Qb/QB)” value in experiment [1] (setting [4]) and in experiment [3] (setting [9]) was 1.00 in each case. Also, the minimum inhibitory concentration (MIC) in experiment [1] (setting [10]) was 3000 µg/mL; in experiment [3] (ATCC10231, 72 h, C. albicans 10231, PDB medium, 3 days, read-out: QB: MIC of second component (B) acting alone) it was 5000 µg/mL.
On to `O=P(O)(O)O[C@H]1[C@H](OP(=O)(O)O)[C@@H](OP(=O)(O)O)[C@H](OP(=O)(O)O)[C@@H](OP(=O)(O)O)[C@H]1OP(=O)(O)O` [phytic acid, inositol hexaphosphoric acid], for which the “SI (Synergy Index, Qa/QA+Qb/QB)” value in experiment [1] (setting [6]), in experiment [2] (1 day) and in experiment [3] (setting [8]) was 1.00 in each case. The MIC in experiment [1] (setting [13]) is 20000 µg/mL; in experiment [2] (ATCC8739, 24 h, 1 day), 5000 µg/mL; in experiment [3] (setting [11]), 3000 µg/mL.
For the compound `CCC(=O)O` [propionic acid, ethanecarboxylic acid], the “SI (Synergy Index, Qa/QA+Qb/QB)” value in experiment [1] (setting [6]), in experiment [2] (1 day), in experiment [3] (setting [7]) and in experiment [3] (setting [8]) was 1.00 each time. The minimum inhibitory concentration (MIC) in experiment [1] (setting [13]) worked out at 500 µg/mL; in experiment [2] (ATCC8739, 24 h, 1 day), 5000 µg/mL; in experiment [3] (setting [12]), 2000 µg/mL; in experiment [3] (setting [11]), 2000 µg/mL.

Values taken from patent US8138212B2, “Synergistic microbicidal compositions” (Rohm and Haas Company, priority 2009, dated 2012).
